This is an account of results in patent US4593090A, “Novel nitrosourea compounds, method for preparing same, and pharmaceutical composition containing same” (Gogo Kimura, priority 1981, dated 1986).

For one series, the system named is Leukemia L1210. Briefly: Activity against Leukemia L1210, intraperitoneal, increase in life span of mice. The series is classed as in vivo, female mice (BDF1 family). The settings on record: for ED (maximum ILS) / ED30: Mus musculus, L1210, ip, ip once a day for 5 successive days; for ED (maximum ILS): daily dosage giving maximum increase of life span, read-out: O.D. (optimum dosage); for ED30: daily dosage increasing average survival days by 30%, read-out: ILS30; for Survivors after 60 days / Max. ILS % / Therapeutic ratio TR: ip; for Survivors after 60 days: 6-membered group; for Max. ILS %: 60-day observation, versus control; for Therapeutic ratio TR: O.D./ILS30. The method in brief: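 L1210 cells (1×10^5) into abdominal cavity of female BDF1 mice, 20–23 g, n=6/group. Dosing 24 h post-implant, ip or po, qd ×5. 60-day observation; ILS% = mean survival vs untreated control; T.R. = O.D./ILS 30.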

A short description of series [1]: Acute toxicity (LD50, Behrens-Karber method). In kind it is in vivo, ICR mice. To be noted: mouse, in vivo, ip, mortality during 30 days. As to the method: Test compounds, dissolved or suspended in 0.5% aqueous CMC, were each intraperitoneally administered to ICR mice in a dose of 0.1 ml per 10 g body weight. LD50 (mg/kg) value of each test compound was calculated from the mortality of mice during 30 days by the Behrens-Karber method.

Each structure is given as a SMILES string.

With `COC(C)CO[C@H]1O[C@H](CN(CC2CC2)C(=O)N(CCCl)N=O)[C@H](O)[C@H](O)[C@H]1O` (stereo partly drawn) [Compound 116, 3-cyclopropylmethyl-3-(2-methoxy-n-propyl α-D-galactopyranose-6-yl)-1-(2-chloroethyl)-1-nitrosourea], in the series with Leukemia L1210, the ED (maximum ILS) was 150 mg/kg, the ED30 was determined as 2.51 mg/kg, the “Survivors after 60 days” value was 6/6 and the “Max. ILS %” value is more than 700%. Besides, the “Therapeutic ratio TR” value in the series on Leukemia L1210 is 59.8. For the same compound, the LD50 at 720 h in series [1] was determined as 450 mg/kg.

`CCCCO[C@H]1O[C@H](CO)[C@H](O)[C@H](O)[C@H]1N(C)C(=O)N(CCCl)N=O` [Compound 118, 3-methyl-3-(n-butyl α-D-galactopyranose-2-yl)-1-(2-chloroethyl)-1-nitrosourea]: in the series with Leukemia L1210, the ED (maximum ILS) was 130 mg/kg, the ED30 was 4.45 mg/kg, the “Survivors after 60 days” value was 3/6 and the “Max. ILS %” value is on record as more than 350%. In addition, in the series with Leukemia L1210, the “Therapeutic ratio TR” value is 29.2. Besides, the LD50 at 720 h in series [1] is 400 mg/kg.

Take `CCCCO[C@H]1O[C@H](CO)[C@H](O)[C@H](O)[C@H]1N(CCC)C(=O)N(CCCl)N=O` [Compound 119, 3-n-propyl-3-(n-butyl α-D-galactopyranose-2-yl)-1-(2-chloroethyl)-1-nitrosourea]: in the series on Leukemia L1210, the ED (maximum ILS) amounted to 200 mg/kg, the ED30 is 5.95 mg/kg, the “Survivors after 60 days” value is recorded as 3/6 and the “Max. ILS %” value is on record as more than 360%. In the series on Leukemia L1210, the “Therapeutic ratio TR” value is 33.6. This compound gave an LD50 at 720 h in series [1] of 600 mg/kg.

`COc1ccc(CN(C(=O)N(CCCl)N=O)[C@H]2[C@@H](OCC(C)C)O[C@H](CO)[C@H](O)[C@@H]2O)cc1` [Compound 120, 3-(p-methoxybenzyl)-3-(isobutyl α-D-galactopyranose-2-yl)-1-(2-chloroethyl)-1-nitrosourea]: in the series with Leukemia L1210, the ED (maximum ILS) stood at 170 mg/kg, the ED30 turned out to be 6.59 mg/kg, the “Survivors after 60 days” value is on record as 3/6 and the “Max. ILS %” value is more than 340%. Besides, the “Therapeutic ratio TR” value with Leukemia L1210 was 25.8. For the same compound, in series [1], the LD50 at 720 h was found to be 550 mg/kg.

Take `CCN(C(=O)N(CCCl)N=O)[C@H]1[C@@H](OCC(C)C)O[C@H](CO)[C@H](O)[C@@H]1O` [Compound 121, 3-ethyl-3-(isobutyl α-D-galactopyranose-2-yl)-1-(2-chloroethyl)-1-nitrosourea]: in the series with Leukemia L1210, the ED (maximum ILS) came to 160 mg/kg, the ED30 was 5.99 mg/kg, the “Survivors after 60 days” value is 3/6 and the “Max. ILS %” value is given as more than 350%. In the series with Leukemia L1210, the “Therapeutic ratio TR” value is listed as 26.7. For the same compound, the LD50 at 720 h in series [1] stood at 480 mg/kg.

As to `CC(C)CO[C@H]1O[C@H](CO)[C@H](O)[C@H](O)[C@H]1N(CC(C)C)C(=O)N(CCCl)N=O` [Compound 122, 3-isobutyl-3-(isobutyl α-D-galactopyranose-2-yl)-1-(2-chloroethyl)-1-nitrosourea], in the series on Leukemia L1210, the ED (maximum ILS) stood at 200 mg/kg, the ED30 turned out to be 6.85 mg/kg, the “Survivors after 60 days” value was 3/6 and the “Max. ILS %” value is more than 355%. Moreover, in the series on Leukemia L1210, the “Therapeutic ratio TR” value is on record as 29.2. Besides, the LD50 at 720 h in series [1] is 715 mg/kg.

For `CC(C)CO[C@H]1O[C@H](CO)[C@H](O)[C@H](N(CC(C)C)C(=O)N(CCCl)N=O)[C@H]1O` [Compound 125, 3-isobutyl-3-(isobutyl α-D-galactopyranose-3-yl)-1-(2-chloroethyl)-1-nitrosourea], in the series on Leukemia L1210, the ED (maximum ILS) was found to be 250 mg/kg, the ED30 came to 7.67 mg/kg, the “Survivors after 60 days” value is 3/6 and the “Max. ILS %” value is more than 350%. The “Therapeutic ratio TR” value in the series with Leukemia L1210 was found to be 32.6. In addition, the LD50 at 720 h in series [1] is 780 mg/kg.

As for `CC(C)CCN(C(=O)N(CCCl)N=O)[C@H]1[C@@H](O)[C@@H](CO)O[C@H](OCC(C)C)[C@@H]1O` [Compound 127, 3-isoamyl-3-(isobutyl α-D-galactopyranose-3-yl)-1-(2-chloroethyl)-1-nitrosourea], in the series with Leukemia L1210, the ED (maximum ILS) turned out to be 200 mg/kg, the ED30 is 6.56 mg/kg, the “Survivors after 60 days” value is 3/6 and the “Max. ILS %” value is listed as more than 340%. For the same compound, in the series on Leukemia L1210, the “Therapeutic ratio TR” value was determined as 30.5. The compound further displayed an LD50 at 720 h in series [1] of 600 mg/kg.

Take `O=NN(CCCl)C(=O)N(CC1CCCCC1)[C@H]1[C@@H](O)[C@@H](CO)O[C@H](OC2CCCCC2)[C@@H]1O` [Compound 128, 3-cyclohexylmethyl-3-(cyclohexyl α-D-galactopyranose-3-yl)-1-(2-chloroethyl)-1-nitrosourea]: in the series on Leukemia L1210, the ED (maximum ILS) worked out at 200 mg/kg, the ED30 came out at 5.99 mg/kg, the “Survivors after 60 days” value is reported as 3/6 and the “Max. ILS %” value was more than 350%. The “Therapeutic ratio TR” value with Leukemia L1210 is recorded as 33.4. Also, the LD50 at 720 h in series [1] stood at 650 mg/kg.

For the compound `CC(C)CO[C@H]1O[C@H](CO)[C@H](N(CC(C)C)C(=O)N(CCCl)N=O)[C@H](O)[C@H]1O` [Compound 129, 3-isobutyl-3-(isobutyl α-D-garactopyranose-4-yl)-1-(2-chloroethyl)-1-nitrosourea], in the series with Leukemia L1210, the ED (maximum ILS) stood at 200 mg/kg, the ED30 was found to be 5.21 mg/kg, the “Survivors after 60 days” value is on record as 3/6 and the “Max. ILS %” value is recorded as more than 350%. Besides, the “Therapeutic ratio TR” value in the series on Leukemia L1210 worked out at 38.4. The median lethal dose (LD50) at 720 h in series [1] turned out to be 600 mg/kg.

As for `C=C(C)CN(C(=O)N(CCCl)N=O)[C@@H]1[C@H](O)[C@@H](O)[C@@H](OCC(COC)OC)O[C@@H]1CO` (stereo partly drawn) [Compound 130, 3-(2-methyl-2-propenyl)-3-(2,3-dimethoxy-n-propyl α-D-galactopyranose-4-yl)-1-(2-chloroethyl)-1-nitrosourea], in the series on Leukemia L1210, the ED (maximum ILS) was determined as 160 mg/kg, the ED30 came to 5.06 mg/kg, the “Survivors after 60 days” value is 3/6 and the “Max. ILS %” value is more than 340%. In addition, the “Therapeutic ratio TR” value in the series with Leukemia L1210 is 31.6. In series [1], this compound showed an LD50 at 720 h of 525 mg/kg.

With `CCOCCO[C@H]1O[C@H](CO)[C@H](N(CC(C)C)C(=O)N(CCCl)N=O)[C@H](O)[C@H]1O` [Compound 131, 3-isobutyl-3-(2-ethoxyethyl α-D-galacropyranose-4-yl)-1-(2-chloroethyl)-1-nitrosourea], in the series on Leukemia L1210, the ED (maximum ILS) was found to be 160 mg/kg, the ED30 came to 3.98 mg/kg, the “Survivors after 60 days” value is reported as 4/6 and the “Max. ILS %” value is more than 430%. Besides, in the series with Leukemia L1210, the “Therapeutic ratio TR” value was found to be 40.2. The same compound registered an LD50 at 720 h in series [1] of 565 mg/kg.

On to `CCCN(C[C@@H]1O[C@@H](OCC(C)C)[C@@H](O)[C@H](O)[C@@H]1O)C(=O)N(CCCl)N=O` [Compound 133, 3-n-propyl-3-(isobutyl α-L-galactopyranose-6-yl)-1-(2-chloroethyl)-1-nitrosourea], for which, in the series on Leukemia L1210, the ED (maximum ILS) amounted to 150 mg/kg, the ED30 amounted to 4.11 mg/kg, the “Survivors after 60 days” value was 3/6 and the “Max. ILS %” value is more than 360%. Besides, the “Therapeutic ratio TR” value in the series on Leukemia L1210 was determined as 36.5. The LD50 at 720 h in series [1] was found to be 495 mg/kg.

In the case of `CCCCN(C[C@@H]1O[C@@H](OCC2CC2)[C@@H](O)[C@H](O)[C@@H]1O)C(=O)N(CCCl)N=O` [Compound 134, 3-n-butyl-3-(cyclopropylmethyl α-L-galactopyranose-6-yl)-1-(2-chloroethyl)-1-nitrosourea], in the series on Leukemia L1210, the ED (maximum ILS) worked out at 150 mg/kg, the ED30 stood at 3.73 mg/kg, the “Survivors after 60 days” value is reported as 3/6 and the “Max. ILS %” value was more than 365%. Besides, the “Therapeutic ratio TR” value in the series on Leukemia L1210 worked out at 40.2. In series [1], this compound came in with an LD50 at 720 h of 490 mg/kg.

Regarding `CC(C)CO[C@H]1O[C@H](CO)[C@@H](N(C(=O)N(CCCl)N=O)C2CCCCC2)[C@H](O)[C@@H]1O` [Compound 137, 3-cyclohexyl-3-(isobutyl α-D-mannopyranose-4-yl)-1-(2-chloroethyl)-1-nitrosourea], in the series on Leukemia L1210, the ED (maximum ILS) came out at 170 mg/kg, the ED30 amounted to 3.74 mg/kg, the “Survivors after 60 days” value was 4/6 and the “Max. ILS %” value is listed as more than 425%. Also, the “Therapeutic ratio TR” value with Leukemia L1210 is given as 45.5. In addition, in series [1], the LD50 at 720 h amounted to 550 mg/kg.

Turning to `CCC(C)N(C(=O)N(CCCl)N=O)[C@H]1[C@H](O)[C@H](O)[C@@H](OCc2ccccc2)O[C@@H]1CO` (stereo partly drawn) [Compound 138, 3-sec-butyl-3-(benzylα-D-mannopyranose-4-yl)-1-(2-chloroethyl)-1-nitrosourea], in the series with Leukemia L1210, the ED (maximum ILS) turned out to be 120 mg/kg, the ED30 turned out to be 4.26 mg/kg, the “Survivors after 60 days” value is given as 3/6 and the “Max. ILS %” value was more than 350%. Also, the “Therapeutic ratio TR” value in the series with Leukemia L1210 amounted to 28.2. The compound also yielded an LD50 at 720 h in series [1] of 370 mg/kg.

For `CC(C)CN(C[C@H]1O[C@H](OCc2ccccc2)[C@@H](O)[C@H](O)[C@@H]1O)C(=O)N(CCCl)N=O` [Compound 139, 3-isobutyl-3-(benzyl α-D-altropyranose-6-yl)-1-(2-chloroethyl)-1-nitrosourea], in the series on Leukemia L1210, the ED (maximum ILS) was 130 mg/kg, the ED30 was 4.58 mg/kg, the “Survivors after 60 days” value is given as 3/6 and the “Max. ILS %” value is on record as more than 340%. Besides, the “Therapeutic ratio TR” value in the series on Leukemia L1210 is given as 28.4. For the same compound, in series [1], the LD50 at 720 h worked out at 420 mg/kg.

As for `COCC(C)N(C[C@H]1O[C@H](OCCc2ccccc2)[C@@H](O)[C@H](O)[C@@H]1O)C(=O)N(CCCl)N=O` (stereo partly drawn) [Compound 141, 3-(1-methyl-2-methoxyethyl)-3-(phenyl-β-ethyl α-D-altropyranose-6-yl)-1-(2-chloroethyl)-1-nitrosourea], in the series on Leukemia L1210, the ED (maximum ILS) amounted to 160 mg/kg, the ED30 is 4.4 mg/kg, the “Survivors after 60 days” value is listed as 3/6 and the “Max. ILS %” value is more than 360%. Further, the “Therapeutic ratio TR” value with Leukemia L1210 stood at 36.4. The same compound showed an LD50 at 720 h in series [1] of 480 mg/kg.

What is called LD50 is the dose at which mortality reaches 50%. A higher LD50 goes with lower toxicity.
